In experiment [1] the test system is MDA-MB-468 breast cancer cells. In words: Cell growth inhibition, Sulforhodamine B assay, MDA-MB-468. Type of experiment: cell-based. Conditions: Homo sapiens, 120 h, 5 days culture, SRB assay, read-out: Cell Line GI50 Range MDA-MB-468.
The next experiment has as its target T1, human TTK (Homo sapiens, UniProt P33981).
T1 construct: amino terminal GST fusion of full length human TTK; purchased Invitrogen
T1 sequence (P33981 1-857): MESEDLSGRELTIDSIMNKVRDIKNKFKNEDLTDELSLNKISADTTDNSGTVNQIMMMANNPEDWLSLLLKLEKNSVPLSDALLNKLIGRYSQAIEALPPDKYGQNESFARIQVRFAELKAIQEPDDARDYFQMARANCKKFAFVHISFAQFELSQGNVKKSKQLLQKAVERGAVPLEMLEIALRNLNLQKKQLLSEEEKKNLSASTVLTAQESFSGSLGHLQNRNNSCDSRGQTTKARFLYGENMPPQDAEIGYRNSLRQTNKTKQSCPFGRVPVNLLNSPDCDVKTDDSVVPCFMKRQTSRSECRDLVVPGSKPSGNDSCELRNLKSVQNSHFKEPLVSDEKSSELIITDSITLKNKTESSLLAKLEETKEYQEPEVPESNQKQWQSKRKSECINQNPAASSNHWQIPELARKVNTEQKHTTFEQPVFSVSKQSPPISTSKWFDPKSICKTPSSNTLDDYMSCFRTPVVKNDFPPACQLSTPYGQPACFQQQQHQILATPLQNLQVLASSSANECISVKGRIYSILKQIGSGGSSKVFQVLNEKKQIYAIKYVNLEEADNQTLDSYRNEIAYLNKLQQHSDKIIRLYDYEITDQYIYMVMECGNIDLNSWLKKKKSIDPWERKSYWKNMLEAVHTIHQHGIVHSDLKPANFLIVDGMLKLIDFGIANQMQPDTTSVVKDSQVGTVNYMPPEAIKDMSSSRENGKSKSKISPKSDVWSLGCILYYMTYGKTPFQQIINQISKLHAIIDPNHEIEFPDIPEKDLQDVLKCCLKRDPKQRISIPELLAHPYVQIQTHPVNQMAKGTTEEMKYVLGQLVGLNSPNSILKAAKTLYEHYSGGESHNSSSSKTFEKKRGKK
In words: TTK inhibition assay (indirect ELISA). Type of experiment: biochemical. The note with it: GST-TTK 0.68 nM, 16 μM ATP; read-out: IC50 Ranges TTK.

Another experiment addresses T2, human PLK4 (Homo sapiens, UniProt O00444).
T2 construct: amino terminal GST fusion of residues 1-391 of human PLK4; made in house; host or cells: E. coli
T2 sequence (O00444 1-391): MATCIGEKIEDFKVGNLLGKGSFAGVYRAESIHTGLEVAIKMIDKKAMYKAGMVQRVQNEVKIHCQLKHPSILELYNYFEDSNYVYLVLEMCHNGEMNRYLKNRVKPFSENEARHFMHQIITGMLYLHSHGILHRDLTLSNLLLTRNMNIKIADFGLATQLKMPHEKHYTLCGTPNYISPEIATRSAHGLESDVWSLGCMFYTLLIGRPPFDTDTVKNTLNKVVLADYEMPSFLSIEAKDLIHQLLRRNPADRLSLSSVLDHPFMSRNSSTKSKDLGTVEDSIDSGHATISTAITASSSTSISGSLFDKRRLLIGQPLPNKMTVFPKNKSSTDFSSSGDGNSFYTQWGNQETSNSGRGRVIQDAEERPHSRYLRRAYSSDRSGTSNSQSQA
As to the kind of experiment: PLK4 inhibition assay (indirect ELISA). It is filed as biochemical. Conditions: GST-PLK4 4 nM, 15 μM ATP; read-out: IC50 Ranges PLK4. A digest of the protocol:
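Compounds were tested either at a single 10 μM dose or across 10-point titrations (typically 0.5 to 0.001 μM), preincubated 15 min with 4 nM GST-PLK4 (human 1-391, dephosphorylated) before 15 μM ATP was added. MBP substrate phosphorylation over 30 min, pH 7.5 HEPES/MgCl2 buffer, read by HRP/TMB ELISA (450 nm). % inhibition vs. high-activity control; IC50 by logistic fit.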
(ELISA stands for enzyme-linked immunosorbent assay.)

Another experiment has as its target T3, Aurora B (Homo sapiens, UniProt Q96GD4).
T3 construct: purchased Invitrogen PV3970
As to the kind of experiment: Aurora B inhibition assay (Z-Lyte). Type of experiment: biochemical. Conditions: 28 nM Aurora B, 128 μM ATP; read-out: IC50 Ranges Aurora B. On the procedure: Aurora B inhibition was determined using the Z-Lyte assay kit from Invitrogen. The assay was performed using the recommended manufacturer's instructions with 128 μM ATP and 28 nM Aurora B (Invitrogen cat #PV3970). The % inhibition values were determined according to the manufacturer's directions and IC50 values were obtained using a non-linear 4 point logistic curve fit (XLfit4, IDBS)

Experiment [2] has as its system MDA-MB-231 breast cancer cells. In words: Cell growth inhibition, Sulforhodamine B assay, MDA-MB-231. Type of experiment: cell-based. The note with it: Homo sapiens, 120 h, 5 days culture, SRB assay, read-out: Cell Line GI50 Range MDA-MB-231. (The SRB assay estimates cell density from bound dye.)
A further experiment concerns HT29 colon cancer cells. In words: Cell growth inhibition, Sulforhodamine B assay, HT29. It is filed as cell-based. The note with it: Homo sapiens, HT-29, 120 h, 5 days culture, SRB assay, read-out: Cell Line GI50 Range HT29.
Experiment [3] relates to HCT116 colon cancer cells. As to the kind of experiment: Cell growth inhibition, Sulforhodamine B assay, HCT116. It is filed as cell-based. Conditions: Homo sapiens, HCT-116, 120 h, 5 days culture, SRB assay, read-out: Cell Line GI50 Range HCT116.
Protocol: (§1) Breast cancer cells (MDA-MB-231, MDA-MB-468), colon cancer cells (HCT116, HT29) and ovarian cancer cells (PA-1, OVCAR-3) were seeded (1000 to 4000 in 80 μl per well depending on the cell growth rate) into 96 well plates 24 hours before compound overlay. Compounds were prepared as 10 mM stock solutions in 100% DMSO which were diluted with DMEM (Dulbecco's Modified Eagle's Medium) cell growth Medium (Invitrogen, Burlington, ON, Canada) containing 10% FBS (Fetal Bovine Serum) to concentrations ranging from 50 nM to 250 μM. Aliquots (20 μl) from each concentration were overlaid to 80 μl of the pre-seeded cells in the 96 well plates to make final concentrations of 10 nM to 50 μM. The cells were cultured for 5 days before the Sulforhodamine B assay (SRB) was performed to determine the compound's cell growth inhibition activity.
(§2) Sulforhodamine B (purchased from Sigma, Oakville, ON, Canada) is a water-soluble dye that binds to the basic amino acids of the cellular proteins. Thus, colorimetric measurement of the bound dye provides an estimate of the total protein mass that is related to the cell number. the cells are fixed in situ by gently aspirating off the culture media and adding 50 μl ice cold 10% Trichloroacetic Acid (TCA) per well and incubate at 4° C. for 30-60 min, The plates are washed with water five times and allowed to air dry for 5 min. Addition of 50 μl 0.4% (w/v) SRB solution in 1% (v/v) acetic acid to each well and incubatation for 30 min at RT completes the staining reaction. Following staining, plates are washed four times with 1% acetic acid to remove unbound dye and then allowed to air dry for 5 min. The stain is solubilized with 100 μl of 10 mM Tris pH 10.5 per well. Absorbance is read at 570 nm.
(§3) The percentage (%) of relative growth inhibition was calculated by comparing to DMSO treated only cells (100%). […] The GI50 was calculated using GraphPad PRISM software (GraphPad Software, Inc., San Diego, Calif., USA).
In experiment [4] the test system is OVCAR-3 ovarian cancer cells. As to the kind of experiment: Cell growth inhibition, Sulforhodamine B assay, OVCAR-3. It is filed as cell-based. Conditions: Homo sapiens, 120 h, 5 days culture, SRB assay, read-out: Cell Line GI50 Range OVCAR-3.
Protocol: as §1, §2, §3

Usually GI50 stands for the concentration giving 50% growth inhibition. In general, IC50 refers to the concentration that inhibits the measured activity by half.

T3 sequence (Q96GD4 whole entry): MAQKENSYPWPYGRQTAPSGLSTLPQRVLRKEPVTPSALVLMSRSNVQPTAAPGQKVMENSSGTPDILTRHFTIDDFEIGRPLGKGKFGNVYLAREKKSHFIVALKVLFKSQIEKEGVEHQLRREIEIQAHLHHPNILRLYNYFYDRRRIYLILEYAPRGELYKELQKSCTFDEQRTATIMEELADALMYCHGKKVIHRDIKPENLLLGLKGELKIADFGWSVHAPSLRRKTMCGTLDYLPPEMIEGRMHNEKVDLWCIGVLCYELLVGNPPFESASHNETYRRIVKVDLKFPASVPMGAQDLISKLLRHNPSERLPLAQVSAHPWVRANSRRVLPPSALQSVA
Protocol for human TTK: Active TTK was purchased from Invitrogen as an amino terminal GST fusion of full length human TTK.
TTK activity was measured using an indirect ELISA detection system. GST-TTK (0.68 nM) was incubated in the presence of 16 μM ATP (Sigma cat#A7699), 50 mM Hepes pH 7.2, 1 mM EGTA, 10 mM MgCl2, and 0.1% Pluronic in a 96 well microtitre plate pre-coated with amino terminal 6 histidine, sumo tagged TTK (amino acid residues 1-275). The reaction was allowed to proceed for 30 minutes, followed by 5 washes of the plate with Wash Buffer (phosphate buffered saline supplemented with 0.2% Tween 20), and incubation for 30 minutes with a 1:3000 dilution of primary antibody (Cell Signaling cat#9381). The plate was washed 5 times with Wash Buffer, incubated for 30 minutes in the presence of secondary antibody coupled to horse radish peroxidase (BioRad cat#1721019, 1:3000 concentration), washed an additional 5 times with Wash Buffer, and incubated in the presence of TMB substrate (Sigma cat#T0440). The colourimetric reaction was allowed to continue for 5 minutes, followed by addition of stop solution (0.5 N sulphuric acid), and quantified by detection at 450 nm with either a monochromatic or filter based plate reader (Molecular Devices M5 or Beckman DTX880, respectively).
Compounds were pre-incubated in the presence of enzyme for 5 minutes prior to addition of ATP and the activity remaining quantified using the above described activity assay. The % Inhibition of a compound was determined using the following formula; % Inhibition=100×(1−(experimental value−background value)/(high activity control−background value)). The IC50 value was determined using a non-linear 4 point logistic curve fit (XLfit4, IDBS) with the formula; (A+(B/(1+((x/C)̂D)))), where A=background value, B=range, C=inflection point, D=curve fit parameter.

In the case of `CC[C@@H](NC(=O)c1ccc2[nH]nc(-c3ccc(OC4CCN(C)CC4)cc3)c2c1)c1cccs1` [Example A63, (R)-3-(4-((1-methylpiperidin-4-yl)oxy)phenyl)-N-(1-(thiophen-2-yl)propyl)-1H-indazole-5-carboxamide], the concentration for 50% growth inhibition (GI50) (in experiment [1]; in experiment [2]; with HT29 colon cancer cells; in experiment [3]; in experiment [4]) was at most 5 µM each time. Also, the IC50 on human TTK, at human PLK4 and on Aurora B was at most 5 µM throughout.
Turning to `O=C(Nc1ccc2[nH]nc(-c3ccc(N4CCOCC4)cc3)c2c1)C(c1ccsc1)N1CCCCC1` (centres unmarked) [Example A32, N-(3-(4-morpholinophenyl)-1H-indazol-5-yl)-2-(piperidin-1-yl)-2-(thiophen-3-yl)acetamide], the GI50 was at most 5 µM in experiment [1]; 20 to 50 µM in experiment [2]; at most 5 µM in the experiment on HT29 colon cancer cells; at most 5 µM in experiment [3]; 5 to 20 µM in experiment [4]. The IC50 at human TTK, on human PLK4 and on Aurora B was at most 5 µM throughout.
Regarding `CC[C@@H](NC(=O)c1ccc2[nH]nc(-c3ccc(N4CCOCC4)cc3)c2c1)c1cccs1` [Example A58, (R)-3-(4-morpholinophenyl)-N-(1-(thiophen-2-yl)propyl)-1H-indazole-5-carboxamide], the GI50 (in experiment [1]; in experiment [2]; in the experiment with HT29 colon cancer cells; in experiment [3]; in experiment [4]) was at most 5 µM each time. Besides, the half-maximal inhibitory concentration (IC50) at human TTK, on human PLK4 and on Aurora B was at most 5 µM in each case.
`O=C(Nc1ccc2[nH]nc(-c3ccc(OC4CCNCC4)c(Cl)c3)c2c1)C(c1ccsc1)N1CCCC1` (centres unmarked) [Example A34, N-(3-(3-chloro-4-(piperidin-4-yloxy)phenyl)-1H-indazol-5-yl)-2-(pyrrolidin-1-yl)-2-(thiophen-3-yl)acetamide]: the GI50 (in experiment [1]; in experiment [2]; in the experiment on HT29 colon cancer cells; in experiment [3]; in experiment [4]) was at most 5 µM throughout. For the same compound, the IC50 at human TTK, at human PLK4 and on Aurora B was at most 5 µM in each case.
For `CN1CCC(Oc2ccc(-c3n[nH]c4ccc(NC(=O)C(c5ccsc5)N5CCCC5)cc34)cc2Cl)CC1` (centres unmarked) [Example A57, N-(3-(3-chloro-4-((1-methylpiperidin-4-yl)oxy)phenyl)-1H-indazol-5-yl)-2-(pyrrolidin-1-yl)-2-(thiophen-3-yl)acetamide], the 50% growth inhibitory concentration (GI50) (in experiment [1]; in experiment [2]; in the experiment on HT29 colon cancer cells; in experiment [3]; in experiment [4]) was at most 5 µM each time. Further, the 50% inhibitory concentration (IC50) on human TTK, at human PLK4 and at Aurora B was at most 5 µM throughout.
Take `CN1CCN(Cc2ccc(-c3n[nH]c4ccc(NC(=O)C(c5ccsc5)N5CCCC5)cc34)cc2)CC1` (centres unmarked) [Example A67, N-(3-(4-((4-methylpiperazin-1-yl)methyl)phenyl)-1H-indazol-5-yl)-2-(pyrrolidin-1-yl)-2-(thiophen-3-yl)acetamide]: the GI50 in experiment [1] is at most 5 µM; in experiment [2] it was at most 5 µM; in the experiment with HT29 colon cancer cells, at most 5 µM; in experiment [3], at most 5 µM; in experiment [4] it was 5 to 20 µM. The IC50 at human TTK and on human PLK4 was at most 5 µM throughout.
For `O=C(NC(c1ccccc1)C1CC1)c1ccc2[nH]nc(-c3ccc(N4CCOCC4)c(F)c3)c2c1` (centres unmarked) [Example A65, N-(cyclopropyl(phenyl)methyl)-3-(3-fluoro-4-morpholinophenyl)-1H-indazole-5-carboxamide], the 50% growth inhibitory concentration (GI50) in experiment [1] was at most 5 µM; in experiment [2], at most 5 µM; in the experiment on HT29 colon cancer cells, at most 5 µM; in experiment [3], at most 5 µM; in experiment [4] it was 5 to 20 µM. Further, the concentration for half-maximal inhibition (IC50) at human TTK and on human PLK4 was at most 5 µM throughout.
In the case of `O=C(Nc1ccc2[nH]nc(-c3ccc(N4CCOCC4)c(F)c3)c2c1)C(c1ccsc1)N1CCCC1` (centres unmarked) [Example A60, N-(3-(3-fluoro-4-morpholinophenyl)-1H-indazol-5-yl)-2-(pyrrolidin-1-yl)-2-(thiophen-3-yl)acetamide], the GI50 in experiment [1] was at most 5 µM; in experiment [2] it was at most 5 µM; with HT29 colon cancer cells it was at most 5 µM; in experiment [3] it was at most 5 µM; in experiment [4] it was 5 to 20 µM. Also, the 50% inhibitory concentration (IC50) at human TTK and at human PLK4 was at most 5 µM throughout.
On to `Cc1cc(-c2n[nH]c3ccc(C(=O)NC(c4ccccc4)C4CC4)cc23)ccc1N1CCOCC1` (centres unmarked) [Example A64, N-(cyclopropyl(phenyl)methyl)-3-(3-methyl-4-morpholinophenyl)-1H-indazole-5-carboxamide], for which the concentration for 50% growth inhibition (GI50) was 5 to 20 µM in experiment [1]; 5 to 20 µM in experiment [2]; at most 5 µM with HT29 colon cancer cells; at most 5 µM in experiment [3]; 20 to 50 µM in experiment [4]. For the same compound, the concentration for half-maximal inhibition (IC50) on human TTK and on human PLK4 was at most 5 µM throughout.
Turning to `CN1CCC(Oc2ccc(-c3n[nH]c4ccc(C(=O)NCC(C)(C)N5CCOCC5)cc34)cc2)CC1` [Example A74, N-(2-methyl-2-morpholinopropyl)-3-(4-((1-methylpiperidin-4-yl)oxy)phenyl)-1H-indazole-5-carboxamide], the GI50 in experiment [1] was at most 5 µM; in experiment [2] it was 5 to 20 µM; with HT29 colon cancer cells it was at most 5 µM; in experiment [3], at most 5 µM; in experiment [4], 20 to 50 µM. For the same compound, the IC50 on human TTK and at human PLK4 was at most 5 µM each time.
On to `C[C@@H](NC(=O)c1ccc2[nH]nc(-c3ccc(N4CCOCC4)cc3)c2c1)C1CCCCC1` [Example A48, (R)—N-(1-cyclohexylethyl)-3-(4-morpholinophenyl)-1H-indazole-5-carboxamide], for which the GI50 is at most 5 µM in experiment [1]; at most 5 µM in experiment [2]; at most 5 µM in the experiment on HT29 colon cancer cells; at most 5 µM in experiment [3]; 5 to 20 µM in experiment [4]. The 50% inhibitory concentration (IC50) on human TTK and on human PLK4 was at most 5 µM in each case.
Turning to `O=C(Nc1ccc2[nH]nc(-c3ccc(N4CCOCC4)cc3)c2c1)Nc1ccccc1Cl` [Example A66, 1-(2-chlorophenyl)-3-(3-(4-morpholinophenyl)-1H-indazol-5-yl)urea], the GI50 in experiment [1] is 5 to 20 µM; in experiment [2], 5 to 20 µM; in the experiment with HT29 colon cancer cells, at most 5 µM; in experiment [3], at most 5 µM; in experiment [4], 5 to 20 µM. For the same compound, the IC50 at human TTK and at human PLK4 was at most 5 µM each time.
